PMC2852583 (Biochemistry, 2010)

Target: T1, pKSI (Δ5-3-ketosteroid isomerase from Pseudomonas putida) (Pseudomonas putida, UniProt P07445, D40N)
T1 sequence (P07445 1-131 D40N): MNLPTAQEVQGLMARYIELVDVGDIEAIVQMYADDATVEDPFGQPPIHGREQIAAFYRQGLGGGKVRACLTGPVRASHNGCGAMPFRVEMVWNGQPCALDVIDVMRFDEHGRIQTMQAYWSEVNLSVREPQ
Experiment: fluorescence emission, linear combination of bound and free spectra
Assay type: binding

SMILES	Kd [µM]
COc1ccc2cc(O)ccc2c1 [6-methoxy-2-naphthol]	10 ± 5
Oc1ccc2cc(Br)ccc2c1 [6-bromo-2-naphthol]	4 ± 1
N#Cc1ccc2cc(O)ccc2c1 [6-cyano-2-naphthol]	2 ± 1
Oc1ccc2cc(O)ccc2c1 [2,6-dihydroxynaphthalene]	20 ± 6
